The source of these data is patent EP0926242A1, “GLIOTOXIN DERIVATIVES AND ANTICANCER AGENT COMPRISING THE SAME” (priority 1996, dated 1998).

Each structure is given as a SMILES string.

For assay [1], the system named is mouse carcinoma of the colon COLON-26. Briefly: Evaluation in vivo using mouse carcinoma of the colon COLON-26 (Example 1). The settings on record: day 21, CDFI mice. The procedure: CDFI mice (female: 4 weeks old) were bought, and colon-26 subcultured in vivo in the subcutaneous tissue was taken out. The colon-26 was minced in a Petridish, and transplanted into the sulcutaneous tissue of CDFI mice in an amount of 10 mg/mouse by a trucker. The transplanted day was assigned day 0, and the size of the tumor and body weight were measured on day 7 and divided into groups by n=4. The size of tumor was calculated as tumor weight by the following formula. (Tumor Weight (mg) = Tumor Volume (mm)^3 =1/2 × Major Axis (mm) × Minor Axis (mm))^2 [formula]
Administration was carried out from day 7 according to the following schedule. Dose was 0.2 mL/mouse, and injected into abdominal cavity. Acetylgliotoxin was dissolved in dimethyl sulfoxide (DMSO) in a concentration of 100 mg/mL, and adjusted to an object concentration (0.5 mg/kg, 1 mg/kg, 10 mg/kg, 20 mg/kg) by 5% Tween 80 (saline solution). In the evaluation of […], 1 mg/kg, injection was carried out every day for 5 days, in the case of 10 mg/kg, injected twice on day 7 and day 8, and in the case of 20 mg/kg, injected once on day 7.
The anticancer effect was evaluated by the inhibition rate of tumor cell multiplication (IR calculated from the weight of tumor. IR was obtained by the following formula. IR (%) = (1-Tumor Weight of Administration Group/Tumor Weight of Control Group) [formula]

In assay [2] the test system is Human carcinoma of the colon cell strain HCT-116. Put plainly: Tertiary culture using test human cancer, killed cells by MTT method. Format: cell-based. To be noted: incubated 3 days. Here is the method:
Tertiary cultures were carried out using a human carcinoma of the colon tissue in stage 2b. The tertiary cultures were carried out according to the reported method (Int.J.Cancer Res., 82, 607-612 (1991), Gan to Kagakuryoho, 18, 239-243 (1991), Gan to Kagakuryoho, 19, 743-748 (1992)). The extracted tissue of carninoma of the colon was cut into square pieces having a side of about 2 mm, and incubated in a RPMI- 1640 medium containing 10 % fetal calf serum under 5 % CO2 at 37 °C for 3 days. Existing anticancer agents or acetylgliotoxin were diluted and added, and further incubated for 3 days. Then, the rate of killed cells was determined by the MTT method. The tertiary cultures using the test human cancer were carried out as follows: Human carcinoma of the colon cell strain HCT-116 was transplanted into the subcutaneous tissue of a nude mouse (Balb nu/nu) to induce tumor. The cancer tissue was extracted from the tumor-induced portion, and cut into square pieces having a side of 2 mm. The evaluation of the existing anticancer agents and acetylyliotoxin was earried out according to the aforementioned method.

In a further assay the test system is various cancer cells. Put plainly: Judgement of apoptosis by DAPI nucleus staining. Type of assay: cell-based. To be noted: agglomeration of chromosomes, fluorescence microscope. Here is the method:
Antitumor activity of acetylgliotoxin against various cancer cells was measured by the MTT method. Various cancer cells were adjusted to 4.0 × 10^4 cells/mL by using a medium (hereinafter referred to as medium A) composed of RPMI 1640 medium (GIBCO) containing 10% fetal calf serum, and each 0.1 mL of the cancer cells was pipetted into each well of a 96 well microtiter plate. The plate was incubated in a carbon dioxide gas incubator at 37 °C for 20 hours, and each 0.025 mL of samples (test compounds) suitably diluted with the medium A was added. Then, incubation was further carried out in the carbon dioxide gas incubator at 37 °C for 72 hours. […] Produced crystals were dissolved, and absorbance at 570 nm was measured by a microplate reader. […] Apoptosis was determined by incubating the plate in the carbon dioxide gas incubator at 37 °C for 20 hours, adding each 0.025 mL of samples (test compounds) suitably diluted with the medium A, incubating in the carbon dioxide gas incubator at 37 °C for 72 hours, according to the above method, adding nucleus-staining fluorescent dye DAPI (4,6 - diaminodino-2-henylindole) to each well so as to become 0.5 ng/mL, and after leaving at room temperature for 10 minutes, confirming agglomeration of chromosomes by using a fluorescence microscope.

In assay [3] the test system is mouse carcinoma of the colon cells colon 26. Put plainly: Anticancer effect in vivo against colon 26 (Example 9 A). The settings on record: CDFI mice. The procedure: • (A) Evaluationin vivo using mouse carcinoma of the colon cells colon 26 CDFI mice (female : 4 weks age) were bought, and colon 26 subcultured in the subcutaneous tissue of the mouse was taken out, and cut into small pieces by a scissors. The cancer cells were transplanted into subcutaneous tisue of CDFI mice by a trucker. The day was assigned 0 day, and the tumor was measured by a slide caliper after 7 days. The volume of the tumor was calculated, and divided into groups (each group : n = 4). The text compound was dissolved in dimethylsulfoxide, and diluted with 5 % Tween 80- saline aqueous solution. […] The administration was carried out after 7 days, after 11 days and after 15 days or after 7 days and after 8 days from the transplantation at a rate of once per one day. 21st day from the transplantation, the volume of tumor was measured and the volume of tumor and the inhibition against tumor multiplication rate (I.R.) were calculated. The volume of tumor was calculated by the following formula. (Tumore Volume [mm)^3 (]= Minor Axis [mm])^2 × Major Axis [mm] × (1/2) [formula] • The inhibition against tumor multiplication rate (I.R.) was calculated by the following formula. I.R. [%] = {1- (Average Tumor Volume of Administration Group / Average Tumor Volume of Control Group)) × 100 [formula] • (B) Evaluation in vivo using human carcinoma of the colon cells HCT-116 Balb/c nu/nu mice (female : 5 weks age) were bought, and HCT-116 (Dainippon Seiyaku) subcultured in the subcutaneous tissue of the mouse was taken out, and cut into small pieces by a scissors. The cancer cells were transplanted into subcutaneous tissue of […] mice by a trucker. The day was assigned 0 day, and the tumor was measured by a slide caliper after 7 days. The volume of the tumor was calculated, and divided into groups (each group : n = 2). The text compound was dissolved in dimethylsulfoxide, and diluted with 5 % Tween 80- saline aqueous solution. […] The administration was carried out after 7 days, after 11 days and after 15 days from the transplantation at a rate of once per one day. 21st day from the transplantation, the volume of tumor was measured and the volume of tumor and the inhibition against tumor multiplication rate (I.R.) were calculated by the above formulas.

Where [4] appears, read: 2.5[mg/kg]×3 (i.p.), 7,11,15th days.
The mark [5] stands for this setting: 5 [mg/kg]×3 (i.p.), 7,11,15th days.
[6] abbreviates: 10 [mg/kg]×2 (i.p.), 7,8th days.

In the case of `CC(=O)OC1C=CC=C2CC34SSC(CO)(C(=O)N3C21)N(C)C4=O` (centres unmarked) [acetylgliotoxin], the “I. R. (%)” value is recorded as 28% in assay [1] (0.5 mg/kg×5 i.p.(d7-11)); 19% in assay [1] (1 mg/kg×5 i.p.(d7-11)); 38% in assay [1] (10 mg/kg×2 i.p.(d7, 8)); 34% in assay [1] (20 mg/kg×1 i.p.(d7)); 43% in assay [2] (conc. 6.25 ug/mL); 56% in assay [2] (conc. 12.5 ug/mL). Moreover, the “I. R. (%)” value in assay [2] (conc. 25 ug/mL) amounted to 67%. The “apoptosis (cell death) -inducing ability” value with various cancer cells is “apoptosis (cell death) -inducing ability”. For the same compound, the “I.R. (21st day)” value in assay [3] (setting [4]) is listed as 19.6%; in assay [3] (setting [5]) it was 11.8%; in assay [3] (setting [6]), 26.0%. The results for the I.R.Max in assay [3] (setting [4]), in assay [3] (setting [5]) and in assay [3] (setting [6]) were 44.9%, 56.8% and 68.8%, respectively.
